Reference: patent publication EP0470144B1, “BETA-HYDROXAMATE D-ASPARTIC ACID FOR TREATMENT OF VIRAL INFECTIONS AND TUMOURS” (priority 1989, dated 1990)
Where “and” joins values, the source holds several entries; their conditions need not be identical. Equal values may be shown once.

How the values were obtained:
[1] = tested on: virus de Friend; assay: Survival of mice infected with Friend virus; assay type: in vivo, souris DBA/2
From the text: Dans d'autres essais, le virus a été maintenu par passages successif intrapéritonéaux chez la souris DBA/2. Cet entretien a été fait à partir de la rate de l'animal tous les 21 jours. L'activité du DAH a été évaluée en comparant les durées de survie des animaux à qui est injecté le virus, avec ou sans DAH. Le traitement a commencé trois jours après l'infection virale car on considère qu'il faut ce laps de temps pour qu'il y ait des séquences du virus dans le génome des précurseurs érythroïdes de la souris infectée. Après avoir fait varier le nombre d'injections journalières et la durée du traitement pour une dose donnée, il a été établi que 3 injections de 1g/kg/dose de DAH durant les 10 premiers jours et 2 injections de 1g/kg/dose de DAH pendant les 20 jours suivants, produisent un T/C de 239 %. Les résultats sont rapportés dans le tableau suivant : Tableau 2

[2] = Stability of DAH versus pH and temperature over one month (colorimetric assay of the hydroxamate function); assay type: physicochemical; settings: for Pourcentage de dégradation du DAH sur une période de 30 jours: 30 days
Method: La fonction hydroxamate du DAH est mise en évidence par un complexe Fe3+-hydroxamate qui donne une coloration rouge-violet, quantifiée par méthode colorimétrique à 550 nm, à l'aide d'un spectrophotomètre de type Beckman DU 70.
La stabilité du DAH en fonction du pH et de la température a été déterminée sur une durée d'un mois par dosage colorimétrique spécifique de la fonction hydroxamate. Les résultats du tableau ci-après montrent que dans l'eau le DAH est stable jusqu'à une température de 50°C. Une dégradation significative du produit n'est constatée que dans des conditions extrêmes de pH, comme l'illustre le Tableau 1 ci-après. Tableau 1

[3] = Acute parenteral toxicity in mice (lethal doses); assay type: in vivo, souris B6D2F1; settings: evaluated at 24 hours and 14 days
From the text: La toxicité du DAH par voie parentérale a été évaluée chez la souris B6D2F1 âgée de six semaines et pesant entre 20 et 22 g. Pour chaque niveau de dose, on a utilisé treize mâles et treize femelles avec une période d'observation de 14 jours. La dose léthale (DL) a été évaluée 24 heures après l'injection de DAH puis à 14 jours. Dans ces conditions, on a pu montrer que la DL 10 (10 % de mortalité) était observée pour des posologies de 8,5-9 g/kg, la DL 50 correspondait à 11-12 g/kg et la DL 90 à 14-15 g/kg. Il n'a pas été observé de différence significative de mortalité à 24 heures et à 14 jours pour un niveau de dose donné.

[4] = Tolerance to prolonged administration in mice (30 days); assay type: in vivo, souris; settings: 2 g/kg once daily or 1 g/kg twice daily
From the text: La tolérance à l'administration prolongée du DAH a été évaluée sur un groupe de 10 souris traitées pendant 30 jours à une injection quotidienne de 2 g/kg, et un groupe de 10 souris recevant pendant la même durée deux injections de 1 g/kg par jour. La tolérance a été excellente, sans signe clinique de toxicité, sans décès et avec un poids corporel restant dans un intervalle de +/- 10 % par rapport à un groupe contrôle de même âge et de même poids initial.

[5] = tested on: lymphocytes de donneurs sains; assay: Growth and cell mortality of uninfected lymphocytes from healthy donors; assay type: cell-based; settings: 0,5-2 mM DAH
From the text: Cette inhibition est dose-dépendante. Les essais ont d'abord porté sur des lymphoytes de donneurs sains (Figures 1 et 2). On a pu mettre en évidence cette activité sur deux modèles de réplication du HIV : a) lymphocytes normaux infectés par le virus purifié et b) coculture des lymphocytes des malades du SIDA et de lymphocytes normaux. On a mesuré l'activité transcriptase inverse pendant 22 jours dans le surnageant de cultures cellulaires comme critère de prolifération virale. Le traitement avec le DAH a duré 72 heures de J₀ à J₃ de la manipulation (Figures 3, 4 et 5). […] Par contre, le DAH s'est montré plus toxique vis-à-vis des lymphocytes infectés par le virus du SIDA (Figures 6 et 7).
Effet du DAH sur le taux de croissance de lymphocytes de donneurs sains.
(●) absence de DAH (o) concentration en DAH = 0,5 mM (□) concentration en DAH = 1 mM (△) concentration en DAH = 1,5 mM (◇) concentration en DAH = 2 mM • . En abscisses : temps de culture (en jours) • . En ordonnées : taux de croissance
Effet du DAH sur la mortalité cellulaire de lymphocytes sains.
(●) absence de DAH (o) concentration en DAH = 0,5 mM (□) concentration en DAH = 1 mM (△) concentration en DAH = 1,5 mM (◇) concentration en DAH = 2 mM • . En abscisses : temps de culture (en jours) • . En ordonnées : proportion de cellules mortes (en %)

[6] = tested on: leucémie L1210; assay: Antitumour activity in the L1210 leukaemia model, survival; assay type: in vivo, souris B6D2F1/J; settings: for Nombre d'animaux survivants: at 30 days
From the text: L'activité antitumorale du DAH et du LAH a été étudiée sur le modèle de leucémie L1210. Les cellules leucémiques L1210 sont maintenues par passages intrapéritonéaux dans la souris B6D2F1/J mâle. […] La durée d'observation est de 30 jours.

**Q.** For `N[C@@H](CC(=O)NO)C(=O)O` [DAH, D-acide aspartique β-hydroxamate], which “Nombre d'animaux survivants” value ([1]; 1 g/kg x 3/j J 1-10 then x 2/j J 11-30) is on record?
**A.** The value was 5/10.

**Q.** What about the “T/Cx100” value ([1]; 1 g/kg x 3/j J 1-10 then x 2/j J 11-30, T/C = survival time treated/controls) of the same compound?
**A.** The value was 239,86%.

**Q.** What about the “Nombre d'animaux survivants” value ([1]; 1 g/kg x 3/j, J 1-10) of the same compound?
**A.** The value was 0/10.

**Q.** What about the “T/Cx100” value ([1]; 1 g/kg x 3/j, J 1-10) of the same compound?
**A.** The value was 193%.

**Q.** What about the “Pourcentage de dégradation du DAH sur une période de 30 jours” value ([2]; HCl 0,1 N, + 4 °C) of the same compound?
**A.** The value was 42%.

**Q.** What about the “Pourcentage de dégradation du DAH sur une période de 30 jours” value ([2]; HCl 0,1 N, + 25 °C) of the same compound?
**A.** Its value is 78%.

**Q.** And the “Pourcentage de dégradation du DAH sur une période de 30 jours” value ([2]; HCl 0,1 N, + 50 °C)?
**A.** The value was 100%.

**Q.** What about the “Pourcentage de dégradation du DAH sur une période de 30 jours” value ([2]; H₂O, + 4 °C) of the same compound?
**A.** Its value is 0%.

**Q.** And the “Pourcentage de dégradation du DAH sur une période de 30 jours” value ([2]; H₂O, + 25 °C)?
**A.** The value was 0%.

**Q.** What about the “Pourcentage de dégradation du DAH sur une période de 30 jours” value ([2]; H₂O, + 50 °C) of the same compound?
**A.** The value was 0%.

**Q.** And the “Pourcentage de dégradation du DAH sur une période de 30 jours” value ([2]; NaOH 0,1 N, + 4 °C)?
**A.** The value was 4%.

**Q.** And the “Pourcentage de dégradation du DAH sur une période de 30 jours” value ([2]; NaOH 0,1 N, + 25 °C)?
**A.** The value was 36%.

**Q.** What about the “Pourcentage de dégradation du DAH sur une période de 30 jours” value ([2]; NaOH 0,1 N, + 50 °C) of the same compound?
**A.** The value was 100%.

**Q.** And the “Stabilité du DAH” value ([2]; in water, up to 50°C, one month)?
**A.** The value was “stable”.

**Q.** And the “DL 10 (10 % de mortalité)” value [3]?
**A.** The value was 8,5-9 g/kg and 8,5 g/kg.

**Q.** And the “DL 50” value [3]?
**A.** The value was 11 to 12 g/kg.

**Q.** And the “DL 90” value [3]?
**A.** Its value is 14 to 15 g/kg.

**Q.** What about the “poids corporel, intervalle (+/-) par rapport à un groupe contrôle” value [4] of the same compound?
**A.** Its value is ≤ 10%.

**Q.** What about the “tolérance à l'administration prolongée” value ([4]; no clinical sign of toxicity, no death) of the same compound?
**A.** The value was “excellente”.

**Q.** And the “toxicité pour les lymphocytes non infectés par le virus HIV” value [5]?
**A.** Its value is “n'est pas toxique”.

**Q.** What about the T/Cx100 ([6]; 0,5 g/kg x4/j, days 1,2,3) of the same compound?
**A.** Its T/Cx100 is 113%.

**Q.** What about the “Nombre d'animaux survivants” value ([6]; 0,5 g/kg x4/j, days 1,2,3) of the same compound?
**A.** The value was 0/5.

**Q.** What about the T/Cx100 ([6]; 1,5 g/kg x4/j, days 1,2,3) of the same compound?
**A.** The T/Cx100 was 276%.

**Q.** And the T/Cx100 ([6]; 1,5 g/kg x4/j, days 1,2,3,4)?
**A.** Its T/Cx100 is 347%.

**Q.** What about the “Nombre d'animaux survivants” value ([6]; 1,5 g/kg x4/j, days 1,2,3,4) of the same compound?
**A.** Its value is 3/5.

**Q.** What about the “Nombre d'animaux survivants” value ([6]; 1,5 g/kg x4/j, days 1,2,3) of the same compound?
**A.** Its value is 0/5.

**Q.** And the T/Cx100 ([6]; 1 g/kg x3/j, days 1-10)?
**A.** The T/Cx100 was 347%.

**Q.** And the “Nombre d'animaux survivants” value ([6]; 1 g/kg x3/j, days 1-10)?
**A.** Its value is 3/5.

**Q.** And the T/Cx100 ([6]; 1 g/kg x4/j, days 1,2,3)?
**A.** Its T/Cx100 is 171%.

**Q.** And the “Nombre d'animaux survivants” value ([6]; 1 g/kg x4/j, days 1,2,3)?
**A.** The value was 0/5.

**Q.** And the “survie des animaux traités” value ([6]; 1 g/kg, 4 times a day for 3 days)?
**A.** The value was “prolongation très significative de la survie”.

**Q.** What about the activité antitumorale ([6]; dose of 1 g/kg or more, 3 or 4 times a day) of the same compound?
**A.** The activité antitumorale was “activité antitumorale significative”.
